Measurements: patent US20130028849A1, “Agent For Stimulating The Expression of Loxl” (BASF Beauty Care Solutions France S.A.S., priority 2009, published 2013)
Values joined by “and” are separate entries in the source; they are usually repeats but may differ in a detail not shown here. Identical values can stand only once.

Tests used:
[1] = target: T1, HLE (Human Leucocyte Elastase) (Homo sapiens, UniProt P08246); experiment: HLE test (anti-elastase activity, cleavage of coloured peptide substrate); assay type: biochemical
T1 sequence (P08246 30-267): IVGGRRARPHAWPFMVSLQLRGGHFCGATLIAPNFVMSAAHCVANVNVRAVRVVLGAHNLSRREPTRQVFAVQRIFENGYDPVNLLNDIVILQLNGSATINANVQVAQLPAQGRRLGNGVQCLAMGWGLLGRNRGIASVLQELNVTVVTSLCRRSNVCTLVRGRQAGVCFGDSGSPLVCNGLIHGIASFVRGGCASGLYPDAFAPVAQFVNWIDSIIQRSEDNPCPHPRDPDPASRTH
Protocol: The anti-elastase activity was evaluated using HLE (Human Leucocyte Elastase). […] The principle of this test resides in measuring the degree of cleavage of a coloured peptide substrate by HLE.
The tested products were as follows: • the extract of the invention was prepared in accordance with Example 1a) tested at final concentrations of 0.5%, 1%, 2% and 3% (w/w); • a 0.01% (w/w) solution of ursolic acid was used as the positive inhibition control for inhibition; • no solution was used as the negative control (the reaction buffer for the enzyme replaces the tested product).
The percentage inhibition was calculated for each test product with respect to the negative control (=100% activity i.e. 0% inhibition).
(§1) Tests used were performed in the same conditions than above described with Geophila cordifolia. Extract of Geophila repens was obtained according to example 7a) and tested at different concentrations.

MMP-12 = MMP-12 (Homo sapiens, UniProt P39900); experiment: Anti-MMP activity, kinetic test with thiopeptide substrate, MMP-12; assay type: biochemical
Protocol: (§2) Anti-MMP activity was evaluated on matrix metalloproteases MMP-2 and MMP-12.
(§3) The substrat of MMPs is thiopeptide [Ac-PLG-2mercapto-4-methyl-pentanoyl)-LG-OC2H5] (EnzoLifeSciences, P125-9090). The test is carried out in 96-well plates. Different medium are prepared: A <> containing assay buffer and the substrate—Value obtained with blank was deduced from all other conditions. Positive control, NNGH (EnzoLifeSciences, PI 115-9090), which is metalloproteinase inhibitor, diluted at 1/200 in assay buffer. Untreated control, containing assay buffer, MMP and the substrate: this corresponds to 100% MMP activity.
(§4) Other conditions contain assay buffer, MMP, the substrate and the solution to be tested. After 45 min preincubation at 37° C. (to get interaction between MMP and tested product: tested solution or positive control), substrate is added and plate is immediately placed in Plate reader for kinetic measurement of absorbance at 405 nm (maximum absorbance of coloured product resulting from degradation of substrate by MMP). Full plate is read each minute during 20 minutes. After 20 min, a curve reflecting kinetic evolution of MMPs activity is obtained.
(§5) In the linear phase, the slope of the curve provides with MMP activity. The percentage inhibition was calculated with respect to the untreated control according to the formula:
(§6) Inhibition percentage=100−((slope of tested product/Mean of the untreated control slopes)*100)
(§7) This test was performed on MMP-2 and MMP-12. Tested solution containing Geophila cordifiolia extract was obtained according to example 1c) and tested at different concentration.
as §1

MMP-2 = target: T2, MMP-2 (Homo sapiens, UniProt P08253); experiment: Anti-MMP activity, kinetic test with thiopeptide substrate, MMP-2; assay type: biochemical
T2 sequence (P08253 110-660): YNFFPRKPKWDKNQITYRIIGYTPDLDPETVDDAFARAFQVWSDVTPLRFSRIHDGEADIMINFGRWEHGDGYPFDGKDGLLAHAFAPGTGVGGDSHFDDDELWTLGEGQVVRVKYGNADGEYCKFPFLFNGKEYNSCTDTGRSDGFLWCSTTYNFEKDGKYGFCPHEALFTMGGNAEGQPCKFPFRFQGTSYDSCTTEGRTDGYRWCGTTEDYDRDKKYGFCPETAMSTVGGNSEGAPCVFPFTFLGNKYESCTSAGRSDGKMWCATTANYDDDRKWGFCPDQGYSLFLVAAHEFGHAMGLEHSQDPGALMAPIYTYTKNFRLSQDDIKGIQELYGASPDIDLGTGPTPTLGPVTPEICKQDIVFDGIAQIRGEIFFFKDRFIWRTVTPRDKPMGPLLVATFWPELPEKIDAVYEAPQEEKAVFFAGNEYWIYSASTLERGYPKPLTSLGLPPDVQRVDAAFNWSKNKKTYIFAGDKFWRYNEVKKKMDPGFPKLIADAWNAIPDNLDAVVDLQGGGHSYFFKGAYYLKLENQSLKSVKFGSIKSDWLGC
Protocol: as §2, §3, §4, §5, §6, §7, §1

[2] = Lipid peroxidation test (TBARS assay, UV-induced peroxidation); assay type: biochemical; conditions: 1% (w/w)
Protocol: The radical scavenger effect was evaluated: • using the standard test with DPPH (1,1-diphenyl-2-picrylhydrazyl) the principle of which is the measurement of the bleaching induced in the presence of anti oxidants; • by the lipid peroxidation method. The TBArs technique means that malondialdehyde (MDA), one of the terminal products formed during the decomposition of polyunsaturated fatty acids mediated by free radicals, can be assayed. It is assayed by condensation in an acidic medium with hot thiobarbituric acid (TBA), thereby forming a pink chromogen which absorbs strongly between 530 and 535 nm. […] The intensity of the colour is directly proportional to the quantity of MDA. The inhibition of UV-induced peroxidation during incorporation of an active agent allows its anti-oxidizing potential to be calculated.
A 5% liposomal suspension was prepared in deionized water. […] A “blank” was also deposited on a non-irradiated control plate for the spectrophotometer reading (water), the non-irradiated positive control measurements and the non-irradiated test measurements (active agent tested at different concentrations). […]
The percentage inhibition was calculated for each test product with respect to the negative control (=100% of generated free radicals meaning 0% anti-free-radicals effect)

elastin = experiment: Expression of elastin gene by quantitative RT-PCR in normal human fibroblasts; assay type: cell-based; conditions: IL-1b treated fibroblasts, untreated non-irradiated = 1
Protocol: (§8) Their level of expression has been related to the number of cells using the housekeeping gene actin. Expression of the LOXL gene was also followed by quantitative RT-PCR under non-irradiated conditions after application for 24 hours of a Geophila cordifolia extract obtained according to process 1a) at 1%.
(§9) Normal human fibroblasts (NH F) cultivated in a FGM medium (fibroblast growth medium, Promocell) were exposed to a UV stress. A Fisher Bioblock type UVA or UVB source with an electric power of 0.3 mW/cm^2 was used. The UV dose was monitored using a radiometer (VLX 3W) and a CX-312 probe for UVB or a CX-365 probe for UVA. Various UV irradiation conditions were evaluated: For a wavelength of λ=312 nm (UVB) • UVB 5 mJ/cm^2, the exposure time was 30 seconds; • UVB 10 mJ/cm^2, the exposure time was 1 minute;
(§10) Total RNA from the monolayer culture was extracted with the SV96 Total RNA Isolation System® following the manufacturer's instructions. The total RNA was eluted in 100 μl of nuclease-free water and quantified using a spectrophotometer at 260 nm (Molecular Devices Spectramax 190). […]
A quantity of 50 ng of total RNA was amplified by Real Time RT-PCR (Quantitek Sybr Green® kit). The primers used in the RT-PCR experiments (semi-quantitative or real time) were as follows: […]

LOXL = experiment: Expression of LOXL gene by quantitative RT-PCR in normal human fibroblasts; assay type: cell-based; conditions: IL-1b treated fibroblasts, untreated non-irradiated = 1
Protocol: as §8, with “The expression of genes for elastin and LOXL was measured using quantitative RT-PCR under standard culture conditions or after irradiation with increasing doses of UVB or UVA. Their” for “Their”
as §9, §10
A quantity of 50 ng of total RNA was amplified by Real Time RT-PCR (Quantitek Sybr Green® kit). […]

type I collagen = experiment: Fluorescent immunostaining of type I collagen on monolayer cultured fibroblasts; assay type: cell-based, human; conditions: 50 μg/ml
Protocol: Immunofluorescence makes it possible to observe different markers expressed by cells via the use of antibody recognizing these markers. In first step, cells were fixed in cold methanol for 10 minutes. After washing with PBS, antigenic aspecific sites were then blocked for 1 hour with PBS-BSA 1% solution (Bovine serum albumin). Primary antibody diluted at 1% in PBS/BSA 1% was incubated with cells for 1 hour. On the negative control is added IgG control isotope (instead of primary antibody). The excess of anti-body which has not been attached is removed by 2 washings with PBS. Cells were incubated out of light with a solution of secondary antibodies able to recognize primary antibody. This secondary antibody being linked with fluorochrome (Alexa Fluor 488), it makes it possible to see protein with florescent microscopy. Cells were then gently washed 3 times with PBS, and slides covered with mounting medium containing DAPI (Vector®, Vectashield), a nuclear colouring agent. Slides were stored out of light to maintain fluorescence of fluorochrome and analysed with confocal microscopy. Antibodies used in this test were: • primary antibody: collagen 1: rabbit anti-human type I collagen, polyclonal, diluted 1/200 (Novotech 20111) • primary antibody: Isotype IgG1: rabbit IgG1 isotype, ready to use (Zymed Laboratories 08-6199) • secondary antibody: goat anti-rabbit IgG coupled with Alexa fluor 488, polyclonal, diluted 1/1000 (in Vitrogen A11008) Cells used for immunostaining were obtained from fibroblasts from donor […]. Geophila cordifolia obtained according to example 1c) was tested at 1% (diluted in water). Fluorescent Immunostaining of type I collagen on monolayer cultured fibroblasts treated with vegetal extract obtained from example 1c) (magnification 400×, scale bar=25 μm).

[3] = DPPH test (radical scavenger effect); assay type: biochemical; conditions: for radical scavenging activity (DPPH test), Mean: Example 8 series, in %; for anti-free-radicals effect (% vs negative control): DPPH test
[4] = NNGH diluted at 1/200 in assay buffer
[5] = positive control, Example 8 series

Sequence of MMP-12 (P39900 106-470): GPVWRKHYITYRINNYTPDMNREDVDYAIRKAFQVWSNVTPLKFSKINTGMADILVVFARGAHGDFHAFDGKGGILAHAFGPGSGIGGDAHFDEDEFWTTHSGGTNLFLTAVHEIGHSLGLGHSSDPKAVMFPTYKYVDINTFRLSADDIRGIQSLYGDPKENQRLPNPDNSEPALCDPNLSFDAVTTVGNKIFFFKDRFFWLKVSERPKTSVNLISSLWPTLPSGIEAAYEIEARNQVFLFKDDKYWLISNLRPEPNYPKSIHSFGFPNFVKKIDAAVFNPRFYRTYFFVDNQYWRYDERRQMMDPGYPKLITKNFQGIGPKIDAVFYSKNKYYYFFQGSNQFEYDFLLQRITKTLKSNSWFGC

With `C[C@H]1[C@H](C)CC[C@]2(C(=O)O)CC[C@]3(C)C(=CC[C@@H]4[C@@]5(C)CC[C@H](O)C(C)(C)[C@@H]5CC[C@]43C)[C@H]12` [Ursolic acid, ursolic acid] the “HLE inhibition (%)” value ([1]; 0.01% (w/w)) was 85% and the “anti-elastase activity (HLE test), mean” value ([1]; 0.01%, Example 8 series) was 90.47.
In the case of `COc1ccc(S(=O)(=O)N(CC(=O)NO)CC(C)C)cc1` [NNGH], the “MMP-12 inhibition, Mean (%)” value (MMP-12; [4]) was 58.63^+++ %, the “inhibition of MMP-12 activity (in words)” value (MMP-12; positive control, 1/200) was “strongly and significantly inhibits” and the “anti-MMP 12 effect, mean” value (MMP-12; [5]) was 72.5825. For the same molecule, the “MMP-2 inhibition, Mean (%)” value (MMP-2; [4]) was 73.43^+++ %, the “inhibition of MMP-2 activity (in words)” value (MMP-2; positive control, 1/200) was “strongly and significantly inhibits” and the “anti-MMP2 effect, mean” value (MMP-2; [5]) was 62.51.
With vitamin E the “anti-free-radicals effect (% vs negative control)” value [2] was 54.7%.
With “IL-1b: IL-1b treatment group of fibroblasts in Table 6; not described in the method” the “Gene/actin, ELN” value (elastin; single replicates) was 11.02 and 28.48 and 10.07 and 9.393, the “Gene/actin, ELN, Mean” value (elastin) was 14.74 and the “Gene/actin, LOXL” value (LOXL; single replicates) was 1.108 and 0.9779 and 1.139 and 1.246. The “Gene/actin, LOXL, Mean” value (LOXL) was 1.12.
With `O=C1O[C@H]([C@@H](O)CO)C(O)=C1O` [vitamin C] the “anisotropy of collagen type I fibres” value (type I collagen; day 3) was “high anisotropy”, the “type I collagen labelling” value (type I collagen; day 3) was “a fibrillar labelling, being more external to the cell” and the “anisotropy of collagen type I fibres” value (type I collagen; day 5) was “anisotropy is increased”. The “type I collagen labelling” value (type I collagen; day 5) was “labelling is not so intense and fibres are more oriented in one way and thinner”.
For `N[C@@H](CS)C(=O)O` [Cysteine, cysteine], the “radical scavenging activity (DPPH test), Mean” value ([3]; 2.5 mg/l) was 68.52, the “radical scavenging activity (DPPH test), Mean” value ([3]; 5 mg/l) was 79.49 and the “anti-free-radicals effect (% vs negative control)” value ([3]; 2.5 mg/l) was 47.6%. For the same molecule, the “anti-free-radicals effect (% vs negative control)” value ([3]; 5 mg/l) was 83.1%.
